Data: patent US20100120690A1, “Polypeptides Having Antimicrobial Activity and Polynucleotides Encoding Same” (Novozymes Adenium Biotech A/S, priority 2005, published 2010)

Columns and labels:
Type in all cases: cell-based
[1] = system: Staphylococcus carnosus ATCC51365; experiment: Yeast screening assay: radial diffusion assay of yeast supernatants; design: key: An activity of 3 is better than Plectasin; An activity of 2 corresponds to the activity of Plectasin; 1 is worse than Plectasin; conditions: yeast supernatant, clearing zone in radial diffusion assay
Outline: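 Activity scores (1 worse, 2 equal, 3 better than wild-type plectasin) come from the size of the radial-diffusion clearing zone against S. carnosus at 5×10^5 cfu/mL. Test samples were culture supernatants of yeast transformants induced with galactose for 3 days at 30 °C, and plates were developed at 37 °C with MTT.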

[2] = system: Staphylococcus aureus, ATCC 29213; experiment: MIC, NCCLS/CLSI guidelines (Example 5), strain A; conditions: relative to wildtype Plectasin; average of two independent experiments
Procedure: (§1) Plectasin wild-type (SEQ ID NO: 1) and several variants of Plectasin were expressed and purified. The Minimal Inhibitory Concentration (MIC) was determined to test for their antimicrobial activity following the NCCLS guidelines from CLSI (Clinical and Laboratory Standards Institute; formerly known as National Committee for Clinical and Laboratory Standards).
(§2) The peptides were tested against the following strains: • A: Staphylococcus aureus, ATCC 29213; • B: Staphylococcus aureus, ATCC 25923; • C: Staphylococcus aureus, ATCC 29737; • D: Staphylococcus aureus, MRSA ST5 (2001), multi-resistant clinical human isolate from Statens Serum Institut, Denmark; • E: Staphylococcus aureus, MRSA ST80 (2003), multi-resistant clinical human isolate from Statens Serum Institut, Denmark.
(§3) All MIC values represent an average of two independent experiments; and all results in Table 5 are expressed relative to wildtype Plectasin:
(§4) 0: >100% of Plectasin wildtype MIC; 1: 80-100% of Plectasin wildtype MIC; 2: 50-80% of Plectasin wildtype MIC; 3: <50% of Plectasin wildtype MIC.

[3] = system: Staphylococcus aureus, ATCC 25923; experiment: MIC, NCCLS/CLSI guidelines (Example 5), strain B; conditions: relative to wildtype Plectasin; average of two independent experiments
Procedure: as §1, §2, §3, §4

[4] = system: Staphylococcus aureus, ATCC 29737; experiment: MIC, NCCLS/CLSI guidelines (Example 5), strain C; conditions: relative to wildtype Plectasin; average of two independent experiments
Procedure: as §1, §2, §3, §4

[5] = system: Staphylococcus aureus, MRSA ST5 (2001); experiment: MIC, NCCLS/CLSI guidelines (Example 5), strain D; conditions: relative to wildtype Plectasin; average of two independent experiments
Procedure: as §1, §2, §3, §4

[6] = system: Staphylococcus aureus, MRSA ST80 (2003); experiment: MIC, NCCLS/CLSI guidelines (Example 5), strain E; conditions: relative to wildtype Plectasin; average of two independent experiments
Procedure: as §1, §2, §3, §4

[7] = system: panel of 6 different strains of Staphylococcus aureus; experiment: Average MIC, NCCLS/CLSI guidelines using caMHB (Example 6); conditions: average over 6 S. aureus strains, duplicate; MIC above 32 counted as 64; read after 18-24 hours at 37° C.
Outline: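 Six Staphylococcus aureus strains, MSSA and MRSA, were exposed in duplicate to peptide dilutions from 32 down to 0.03 microgram/mL in caMHB following CLSI guidance. Growth was scored after 18-24 h incubation at 37° C. The tabulated value is the mean MIC, with 64 used for any MIC >32 micrograms/mL.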

[8] = system: Staphylococcus carnosus; experiment: TAPS (Trans Acting Peptide System) assay, radial diffusion read-out; design: key: classified as 4>3>2>1; whereas 4 is better than 1; classified as 4>3>2>1; classified as 4>3>2>1; wildtype activity corresponds to 1; conditions: peptide expressed in E. coli
Procedure: A range of antimicrobial polypeptides, which are variants of SEQ ID NO: 1, were tested in the TAPS assay. TAPS may be used to identify new or improved genes encoding peptides that can kill or inhibit the growth of target cells (see PCT application WO 2004/033715). The TAPS assay, an acronym for Trans Acting Peptide System, is based on having a sensitive host producing a peptide followed by screening for its activity in trans against an indicator strain. The advantage of this system is based on that the antimicrobial peptide is expressed in the Gram-negative bacterium E. coli and its antimicrobial activity can be monitored on different microbes including Gram-negatives, positives or fungi. Additionally, TAPS offers the possibility to produce correctly folded AMPs containing disulfide bonds in the host cells, thereby retaining their antimicrobial activities.
The TAPS approach requires first, that expression of the peptide is under control of an inducible promoter with tight regulation, because the host cells are sensitive to the peptide when producing it. Secondly, the produced peptide has to be released to the media so that it can interact with the target organism.
The TAPS screening can be carried out either in solid or liquid media. On solid media, a plasmid library is initially introduced into E. coli host cells. […] In the next step, the filter containing the colonies is transferred to LB growth medium containing inducer (0.1% arabinose) to permit peptide synthesis. Subsequently, the target strain, for example S. carnosus, is overlaid onto the plate and allowed to grow for 12-16 hours at 37° C. Finally, visual inspection of the host cells capable of reducing the proliferation of the target cells is performed and the nucleotide sequence encoding for the antimicrobial peptide is recovered from the host cells. DNA sequence analysis of the variants is obtained to elucidate the nature of the peptide.
As mentioned above, the TAPS screening can also be performed using liquid medium. This procedure requires the use of robotics to analyze large number of clones. In this system, the host E. coli origami cells are transformed with the plasmid library and plated out on LB medium+0.2% glucose+ampicillin (200 mg/L). Independent colonies are then inoculated into 96 or 384-well plates containing 200 micro-L of TB medium+ampicillin (200 mg/L) and cultured overnight at 37° C. These cultures are then replicated robotically and grown to exponential phase until inducer (0.1% arabinose) is added to trigger peptide synthesis. The next step consists in hydrolyzing the cells such that the peptide is released to the media by hot acid hydrolysis. This treatment consists on adding 1 M sodium Phosphate buffer pH 2.3 to obtain a final pH approximately of 2.3 and incubating the cultures overnight at 80° C. Next day, a 25 micro-L aliquot of the hydrolyzed cultures is used to perform an activity test against the desired target organisms. The activity test performed was a Radial Diffusion Assay (RDA) where an aliquot of the hydrolyzed cultures was added to the agarose media inoculated with the target strain, S. carnosus. […] Measurements of the diameter of the clearing zones were performed to quantify the potency of the antimicrobial activity of the peptides.
The antimicrobial activity (against Staphylococcus carnosus) of the tested plectasin variants, which was measured using the TAPS assay, is shown in table 3. The antimicrobial activity corresponds to the clearing zone size and has been classified as 4>3>2>1; whereas 4 is better than 1, and wildtype activity corresponds to 1.

Row | Substance | Activity (antimicrobial activity relative to the activity of plectasin) [1] | Relative MIC, strain A [2] | Relative MIC, strain B [3] | Relative MIC, strain C [4] | Relative MIC, strain D [5] | Relative MIC, strain E [6] | Average MIC [7] [micrograms/mL] | Activity (antimicrobial activity, clearing zone size) [8]
1 | GFGCSGPWDEDDMRCHNHCKAIRGYKGGYCAKGGFVCKCY [N5S + Q14R + S21A + K23R] | 3 | 1 (80-100% of Plectasin wildtype MIC) | 3 (<50% of Plectasin wildtype MIC) | 2 (50-80% of Plectasin wildtype MIC) | 2 (50-80% of Plectasin wildtype MIC) | 0 (>100% of Plectasin wildtype MIC) | 9 | –
2 | GFGCNGPWDEDDMRCHNHCKSIKGYRGGYCAKGGFVCRCY [Q14R + K26R + K38R] | 3 | 3 (<50% of Plectasin wildtype MIC) | 3 (<50% of Plectasin wildtype MIC) | 3 (<50% of Plectasin wildtype MIC) | 3 (<50% of Plectasin wildtype MIC) | 3 (<50% of Plectasin wildtype MIC) | 2 | –
3 | GFGCNGPWDEDDMRCHNHCKSIKGYKGGYCAKGGFVCKCYR [Q14R + Y40YR] | – | – | – | – | – | – | – | 3
4 | GFGCNGPWDEDDMQCHNHCKFIKGYKGGYCTKGGFVCKCY [S21F + A31T] | – | – | – | – | – | – | – | 2
5 | GFGCKGPWDEDDMQCHNHCKSIKGYRGGYCAKGGFVCKCY [N5K + K26R] | 3 | 1 (80-100% of Plectasin wildtype MIC) | 2 (50-80% of Plectasin wildtype MIC) | 3 (<50% of Plectasin wildtype MIC) | 2 (50-80% of Plectasin wildtype MIC) | 2 (50-80% of Plectasin wildtype MIC) | 9 | –
6 | GFGCNGPWGEDDMRCHNHCKSIRGYKGGYCAKGGFVCKCY [D9G + Q14R + K23R] | 3 | 3 (<50% of Plectasin wildtype MIC) | 3 (<50% of Plectasin wildtype MIC) | 3 (<50% of Plectasin wildtype MIC) | 3 (<50% of Plectasin wildtype MIC) | 3 (<50% of Plectasin wildtype MIC) | 2 | –
7 | GFGCNGPWDEGDMQCHNHCKSIKGYKGGYCARGGFVCKCY [D11G + K32R] | 3 | 1 (80-100% of Plectasin wildtype MIC) | 3 (<50% of Plectasin wildtype MIC) | 3 (<50% of Plectasin wildtype MIC) | 2 (50-80% of Plectasin wildtype MIC) | 3 (<50% of Plectasin wildtype MIC) | 5 | –
8 | GFGCNGPWDEDDMRCHNHCKSIRGYRGGYCAKGGFVCKCY [Q14R + K23R + K26R] | 2 | 3 (<50% of Plectasin wildtype MIC) | 3 (<50% of Plectasin wildtype MIC) | 3 (<50% of Plectasin wildtype MIC) | 3 (<50% of Plectasin wildtype MIC) | 3 (<50% of Plectasin wildtype MIC) | 2 | –
9 | GFGCRGPWDEDDMQCHNHCKSIKGYKGGYCAKGGFVCKCY [Mutation N5R] | 3 | 1 (80-100% of Plectasin wildtype MIC) | 2 (50-80% of Plectasin wildtype MIC) | 2 (50-80% of Plectasin wildtype MIC) | 2 (50-80% of Plectasin wildtype MIC) | 2 (50-80% of Plectasin wildtype MIC) | 8 | –
10 | GFGCNGPWDENDMQCHNHCKSIKGYKGGYCAKGGFVCKCY [Mutation D11N] | 3 | 2 (50-80% of Plectasin wildtype MIC) | 3 (<50% of Plectasin wildtype MIC) | 2 (50-80% of Plectasin wildtype MIC) | 2 (50-80% of Plectasin wildtype MIC) | 3 (<50% of Plectasin wildtype MIC) | 6 | –
11 | GFGCNGPWDEDDMRCHNHCRSIKGYKGGYCAKGGFVCKCY [Q14R + K20R] | 2 | 3 (<50% of Plectasin wildtype MIC) | 3 (<50% of Plectasin wildtype MIC) | 3 (<50% of Plectasin wildtype MIC) | 3 (<50% of Plectasin wildtype MIC) | 3 (<50% of Plectasin wildtype MIC) | 3 | –
12 | N5G + D9S + M13L + N17Q + A31T: variant of Plectasin (SEQ ID NO: 1) (GFGCGGPWSEDDLQCHQHCKSIKGYKGGYCTKGGFVCKCY) | – | 3 (<50% of Plectasin wildtype MIC) | 3 (<50% of Plectasin wildtype MIC) | 3 (<50% of Plectasin wildtype MIC) | 3 (<50% of Plectasin wildtype MIC) | 3 (<50% of Plectasin wildtype MIC) | 3 | –
13 | N5S + D9A + K26R: variant of Plectasin (SEQ ID NO: 1) (GFGCSGPWAEDDMQCHNHCKSIKGYRGGYCAKGGFVCKCY) | – | 3 (<50% of Plectasin wildtype MIC) | 3 (<50% of Plectasin wildtype MIC) | 3 (<50% of Plectasin wildtype MIC) | 3 (<50% of Plectasin wildtype MIC) | 3 (<50% of Plectasin wildtype MIC) | 3 | –
14 | D9S + M13L + Q14H: variant of Plectasin (SEQ ID NO: 1) (GFGCNGPWSEDDLHCHNHCKSIKGYKGGYCAKGGFVCKCY) | – | 3 (<50% of Plectasin wildtype MIC) | 3 (<50% of Plectasin wildtype MIC) | 3 (<50% of Plectasin wildtype MIC) | 3 (<50% of Plectasin wildtype MIC) | 3 (<50% of Plectasin wildtype MIC) | 3 | –
